From patent publication US11046680B1, “Heteroaryl-substituted triazoles as APJ receptor agonists” (priority 2016, dated 2021) come the findings set out here.

The target in this experiment is human APJ receptor (Homo sapiens (Human), UniProt P35414). Briefly: biochemical. To be noted: [35S]GTPγS binding, CHO membranes expressing human APJ receptor; read-out: Activity hAPJ SPA EC50 IP. The class given is biochemical. A digest of the protocol: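 Membranes of a stable CHO line carrying human APJ (pFLAG-CMV-3) were used in a GTPγS binding format; buffer GDP, MgCl2 and NaCl were optimized, and plates were read after 90 min at RT.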
Sequence of human APJ receptor (P35414 whole entry): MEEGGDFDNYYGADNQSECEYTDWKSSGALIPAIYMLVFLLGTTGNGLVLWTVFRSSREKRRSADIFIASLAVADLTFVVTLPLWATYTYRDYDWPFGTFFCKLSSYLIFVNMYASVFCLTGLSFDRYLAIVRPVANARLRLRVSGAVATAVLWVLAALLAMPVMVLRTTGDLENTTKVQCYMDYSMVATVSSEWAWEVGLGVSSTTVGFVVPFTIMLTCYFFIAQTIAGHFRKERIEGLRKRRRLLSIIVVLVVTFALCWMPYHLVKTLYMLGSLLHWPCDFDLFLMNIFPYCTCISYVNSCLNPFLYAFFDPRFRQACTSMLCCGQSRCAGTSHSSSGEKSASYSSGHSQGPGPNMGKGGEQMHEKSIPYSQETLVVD
(GTPγS resists hydrolysis and so accumulates on activated G proteins.)
With `COc1cccc(OC)c1-n1c(NS(=O)(=O)[C@H](C)[C@@H](C)c2ncc(C)cn2)nnc1-c1csc(C)n1` (stereo in doubt) [Example 2.0, (2R,3S)-N-(4-(2,6-dimethoxyphenyl)-5-(2-methylthiazol-4-yl)-4H-1,2,4-triazol-3-yl)-3-(5-methylpyrimidin-2-yl)butane-2-sulfonamide], the EC50 amounted to 0.32 nM.

For “(1R,2S)-N-(4-(2,6-dimethoxyphenyl)-5-(1-methyl-1H-pyrazol-3-yl)-4H-1,2,4-triazol-3-yl)-1-(5-fluoro-2-pyridinyl)-1-hydroxy-2-propanesulfonamide and (1S,2R)-N-(4-(2,6-dimethoxyphenyl)-5-(1-methyl-1H-pyrazol-3-yl)-4H-1,2,4-triazol-3-yl)-1-(5-fluoro-2-pyridinyl)-1-hydroxy-2-propanesulfonamide [Example 25.0]”, the EC50 turned out to be 15 nM.

Consider `COc1cccc(OC)c1-n1c(NS(=O)(=O)CCc2ccc(F)cc2C#N)nnc1-c1nc(C2CC2)cs1` [Example 155.0, 2-(2-cyano-4-fluorophenyl)-N-(5-(4-cyclopropylthiazol-2-yl)-4-(2,6-dimethoxyphenyl)-4H-1,2,4-triazol-3-yl)ethanesulfonamide], for which the EC50 was 10 nM.

With `COc1cccc(OC)c1-n1c(NS(=O)(=O)CCc2ncc(C)cn2)nnc1-c1nc(C)cs1` [Example 10.0, N-(4-(2,6-dimethoxyphenyl)-5-(4-methyl-1,3-thiazol-2-yl)-4H-1,2,4-triazol-3-yl)-2-(5-methyl-2-pyrimidinyl)ethanesulfonamide], the EC50 was determined as 8.4 nM.

In the case of `O=S(=O)(CCc1ccc(Cl)cc1)Nc1nnc(-c2cccs2)n1-c1ccccc1OC(F)F` [Example 240.0, 2-(4-chlorophenyl)-N-(4-(2-(difluoromethoxy)phenyl)-5-(thiophen-2-yl)-4H-1,2,4-triazol-3-yl)ethanesulfonamide], the EC50 is 1310 nM.

Consider `COc1cccc(OC)c1-n1c(NS(=O)(=O)[C@@H](C)[C@H](C)c2ncc(C)cn2)nnc1-c1ccn(C(F)F)n1` [Example 198.0, (2S,3R)-N-(5-(1-(difluoromethyl)-1H-pyrazol-3-yl)-4-(2,6-dimethoxyphenyl)-4H-1,2,4-triazol-3-yl)-3-(5-methyl-2-pyrimidinyl)-2-butanesulfonamide], for which the EC50 was 0.2 nM.

Consider `COc1ncnc(OC)c1-n1c(NS(=O)(=O)[C@@H](C)[C@@H](OC(C)C)c2cnc(C)cn2)nnc1-c1ccn(C)n1` [Example 461.0, (1S,2S)-N-(4-(4,6-dimethoxy-5-pyrimidinyl)-5-(1-methyl-1H-pyrazol-3-yl)-4H-1,2,4-triazol-3-yl)-1-(5-methyl-2-pyrazinyl)-1-(2-propanyloxy)-2-propanesulfonamide], for which the EC50 turned out to be 9 nM.

Regarding `COc1cccc(OC)c1-n1c(NS(=O)(=O)[C@@H](C)[C@H](OC)c2ncc(C)cn2)nnc1-c1n[nH]c2ccc(F)cc12` [Example 437.0], the EC50 was 190 nM.

For the compound `CCO[C@H](c1ncc(Cl)cn1)[C@H](C)S(=O)(=O)Nc1nnc(-c2cc(C)n[nH]2)n1-c1c(OC)cccc1OC` [Example 392.0, (1R,2S)-1-(5-Chloropyrimidin-2-yl)-N-(4-(2,6-dimethoxyphenyl)-5-(3-methyl-1H-pyrazol-5-yl)-4H-1,2,4-triazol-3-yl)-1-ethoxypropane-2-sulfonamide], the EC50 came out at 1 nM.

Take `COc1cccc(OC)c1-n1c(NS(=O)(=O)[C@@H](C)[C@H](OC)c2ncc(C)cn2)nnc1-c1csc(C)n1` [Example 338.0, (1R,2S)-N-(4-(2,6-dimethoxyphenyl)-5-(2-methyl-1,3-thiazol-4-yl)-4H-1,2,4-triazol-3-yl)-1-methoxy-1-(5-methyl-2-pyrimidinyl)-2-propanesulfonamide]: the EC50 amounted to 0.34 nM.

Consider `CCOC(=O)c1ccc(OC)c(-n2c(NS(=O)(=O)CCc3ccc(Cl)cc3)nnc2-c2cccs2)c1` [Example 28.0, Ethyl 3-(3-(2-(4-chlorophenyl)ethylsulfonamido)-5-(thiophen-2-yl)-4H-1,2,4-triazol-4-yl)-4-methoxybenzoate], for which the EC50 is 6 nM.

In the case of “(2R,3S)-N-(4-(2,6-dimethoxyphenyl)-5-(1-methyl-1H-pyrazol-3-yl)-4H-1,2,4-triazol-3-yl)-3-(5-methyl-2-pyrazinyl)-2-butanesulfonamide and (2S,3R)-N-(4-(2,6-dimethoxyphenyl)-5-(1-methyl-1H-pyrazol-3-yl)-4H-1,2,4-triazol-3-yl)-3-(5-methyl-2-pyrazinyl)-2-butanesulfonamide [Example 279.0]”, the EC50 was 2.8 nM.

On to `COc1cccc(OC)c1-n1c(NS(=O)(=O)[C@@H](C)[C@H](C)c2ncc(F)cn2)nnc1-c1ccn(C(F)F)n1` [Example 194.0, (2S,3R)-N-(5-(1-(difluoromethyl)-1H-pyrazol-3-yl)-4-(2,6-dimethoxyphenyl)-4H-1,2,4-triazol-3-yl)-3-(5-fluoro-2-pyrimidinyl)-2-butanesulfonamide], for which the EC50 is 0.48 nM.

Consider `COc1cnc([C@@H](C)[C@@H](C)S(=O)(=O)Nc2nnc(-c3ccn(C)n3)n2-c2c(OC)ncnc2OC)nc1` [Example 298.0], for which the EC50 was determined as 1 nM.

For `COc1cccc(OC)c1-n1c(NS(=O)(=O)[C@@H](C)[C@H](C)c2ncc(F)cn2)nnc1-c1cnn(C)c1` [Example 212.0, (2S,3R)-N-(4-(2,6-dimethoxyphenyl)-5-(1-methyl-1H-pyrazol-4-yl)-4H-1,2,4-triazol-3-yl)-3-(5-fluoro-2-pyrimidinyl)-2-butanesulfonamide], the EC50 worked out at 0.42 nM.

On to `COc1cccc(OC)c1-n1c(NS(=O)(=O)[C@@H](C)[C@H](O)c2ncc(C)cn2)nnc1-c1ccn(C(F)F)n1` [Example 218.0, (1R,2S)-N-(5-(1-(difluoromethyl)-1H-pyrazol-3-yl)-4-(2,6-dimethoxyphenyl)-4H-1,2,4-triazol-3-yl)-1-hydroxy-1-(5-methyl-2-pyrimidinyl)-2-propanesulfonamide], for which the EC50 was determined as 0.87 nM.

On to `COc1ncnc(OC)c1-n1c(NS(=O)(=O)[C@@H](C)[C@H](C)c2ncc(C)cn2)nnc1-c1noc2ccccc12` [Example 88.0, (2S,3R)-N-(5-(benzo[d]isoxazol-3-yl)-4-(4,6-dimethoxypyrimidin-5-yl)-4H-1,2,4-triazol-3-yl)-3-(5-methylpyrimidin-2-yl)butane-2-sulfonamide], for which the EC50 came to 50 nM.

As to `COc1cccc(OC)c1-n1c(NS(=O)(=O)[C@H](C)Cc2ncc(F)cn2)nnc1-c1nc(C(C)C)cs1` (single isomer, unassigned) [Example 158.0, (R)-N-(4-(2,6-dimethoxyphenyl)-5-(4-isopropylthiazol-2-yl)-4H-1,2,4-triazol-3-yl)-1-(5-fluoropyrimidin-2-yl)propane-2-sulfonamide or (S)-N-(4-(2,6-dimethoxyphenyl)-5-(4-isopropylthiazol-2-yl)-4H-1,2,4-triazol-3-yl)-1-(5-fluoropyrimidin-2-yl)propane-2-sulfonamide], the EC50 was 4.1 nM.

On to `COc1cccc(OC)c1-n1c(NS(=O)(=O)CC[C@@H](O)C2CCCC2)nnc1-c1nc(C)cs1` (mixture of isomers) [Example 98.0, (R)-3-Cyclopentyl-N-(4-(2,6-dimethoxyphenyl)-5-(4-methylthiazol-2-yl)-4H-1,2,4-triazol-3-yl)-3-hydroxypropane-1-sulfonamide and (S)-3-cyclopentyl-N-(4-(2,6-dimethoxyphenyl)-5-(4-methylthiazol-2-yl)-4H-1,2,4-triazol-3-yl)-3-hydroxypropane-1-sulfonamide], for which the EC50 turned out to be 5.3 nM.

Turning to `Cc1cnc([C@@H](C)[C@H](C)S(=O)(=O)Nc2nnc(-c3noc4ccccc34)n2C2CCOCC2)nc1` [Example 84.0, (2S,3R)-N-(5-(benzo[d]isoxazol-3-yl)-4-(tetrahydro-2H-pyran-4-yl)-4H-1,2,4-triazol-3-yl)-3-(5-methylpyrimidin-2-yl)butane-2-sulfonamide], the EC50 stood at 260 nM.

`COc1cnc([C@H](C)[C@H](C)S(=O)(=O)Nc2nnc(-c3ccn(C)n3)n2-c2c(OC)ncnc2OC)nc1` [Example 297.0]: the EC50 worked out at 0.14 nM.

`CCc1csc(-c2nnc(NS(=O)(=O)[C@H](C)Cc3ncc(F)cn3)n2-c2c(OC)cccc2OC)n1` (single isomer, unassigned) [Example 104.0, (R)-N-(4-(2,6-dimethoxyphenyl)-5-(4-ethylthiazol-2-yl)-4H-1,2,4-triazol-3-yl)-1-(5-fluoropyrimidin-2-yl)propane-2-sulfonamide or (S)-N-(4-(2,6-dimethoxyphenyl)-5-(4-ethylthiazol-2-yl)-4H-1,2,4-triazol-3-yl)-1-(5-fluoropyrimidin-2-yl)propane-2-sulfonamide]: the EC50 was determined as 4.6 nM.

In the case of `CCn1ccc(-c2nnc(NS(=O)(=O)[C@@H](C)[C@H](O)c3ncc(C)cn3)n2-c2c(OC)cccc2OC)n1` [Example 388.0, (1R,2S)-N-(4-(2,6-Dimethoxyphenyl)-5-(1-ethyl-1H-pyrazol-3-yl)-4H-1,2,4-triazol-3-yl)-1-hydroxy-1-(5-methylpyrimidin-2-yl)propane-2-sulfonamide], the EC50 was found to be 0.37 nM.

In the case of `COc1cccc(OC)c1-n1c(NS(=O)(=O)CCc2ccc(Cl)cc2)nnc1-c1ncco1` [Example 92.0, 2-(4-chlorophenyl)-N-(4-(2,6-dimethoxyphenyl)-5-(oxazol-2-yl)-4H-1,2,4-triazol-3-yl)ethanesulfonamide], the EC50 worked out at 71 nM.

As for `COc1ccc(C(=O)O)cc1-n1c(NS(=O)(=O)CCc2ccc(Cl)cc2)nnc1-c1cccs1` [Example 245.0, 3-(3-(2-(4-chlorophenyl)ethylsulfonamido)-5-(thiophen-2-yl)-4H-1,2,4-triazol-4-yl)-4-methoxybenzoic acid], the EC50 was determined as 210 nM.

For the compound `COc1cccc(OC)c1-n1c(NS(=O)(=O)[C@@H](C)[C@H](C)c2ncc(C)cn2)nnc1-c1cc2n(n1)CCC2` [Example 219.0, (2S,3R)-N-(5-(5,6-dihydro-4H-pyrrolo[1,2-b]pyrazol-2-yl)-4-(2,6-dimethoxyphenyl)-4H-1,2,4-triazol-3-yl)-3-(5-methyl-2-pyrimidinyl)-2-butanesulfonamide], the EC50 is 1.7 nM.

With `COCc1nc(-c2nnc(NS(=O)(=O)CCc3ccc(Cl)cc3)n2-c2c(OC)cccc2OC)cs1` [Example 146.0], the EC50 was determined as 97 nM.

A word on the EC50: it is the concentration at which the effect is half-maximal.
